Publication PMC3758588, “Development of an Ultrasensitive Immunoassay for Detecting Tartrazine” (Sensors (Basel, Switzerland), 2013)

System: monoclonal antibody 1F3 (mAb 1F3)
Assay: indirect competitive ELISA against Tar-OVA coating antigen
Assay type: binding, Mus musculus

- IC50: 0.105 ng/mL
Structure (SMILES): O=C(O)c1nn(-c2ccc(S(=O)(=O)O)cc2)c(O)c1/N=N/c1ccc(S(=O)(=O)O)cc1 [Tartrazine, trisodium 5-hydroxy-1-(4-sulfonatophenyl)-4-(4-sulfonatophenylazo)-H-pyrazol-3-carboxylate]
